pIC50: −log10 of the molar value. Starred links: 1 amine or outer side, 2 acyl side, 3 side chain; linkers in the order of their positions; H or OH if unused. Positions of bridges follow the written chain, without caps; N, C: chain ends. Non-standard residues stand in square brackets, D forms with d. Residues, ends and D or L forms follow the SMILES beside them. Suc = O=C(CCC(=O)[*:2])[*:1]; Nle = CCCC[C@H](N)C(=O)O

The assay relates to thrombin generation in human platelet poor plasma with skeletal muscle myosin. Nature of the assay: Assay 2A: thrombin generation, recalcification of human platelet poor plasma + myosin. The format is biochemical. The settings on record: human platelet poor plasma 30%, myosin 50 nM, CaCl2 10 mmol/L; read-out: 2A (recalcification +myosin). The method, then:
Activities of the various peptides and derivative compounds were also examined via assays using recalcification of human plasma. [One of] these assay format (2A) involves monitoring thrombin generation in platelet poor plasma (PPP). Specifically, pooled normal human platelet poor plasma (PPP) (obtained from George King Bio Medical Inc., Overland Park, Kans.) (30%) was incubated with skeletal muscle myosin at 50 nM in the presence of peptide in DMSO or DMSO alone for 5 min at 37° C. Then, fluorogenic thrombin substrate solution (Z-Gly-Gly-Arg-AMC) (I-1140) with CaCl2 (10 mmol/L final) alone was added to the reaction mixture (total 110 μl) to initiate coagulation. Thrombin generation was followed continuously for 25 min using SPECTRAmax GEMINI XS fluorometer (Molecular Devices, Sunnyvale, Calif.) with excitation and emission wavelengths set at 360 and 460 nm, respectively. The first derivative of fluorescence versus time was used to produce thrombin generation curves with the correction for substrate consumption and inner filter effect. For this assay 96 well plate (total 110 μL) or 384 well plates (total 30 μL) were used.
Activities obtained from Assay 2A (recalcification of human plasma in the presence of myosin) were used to rank the various peptides listed in Table 3. As noted above, this assay monitors recalcification of plasma to stimulate thrombin generation. In this assay, potency of the compounds was determined as the peptide concentration for 50% inhibition of thrombin generation, defined as “IC50”.
Regarding `CC[C@H](C)[C@H](NC(=O)[C@H](C)NC(=O)[C@@H]1CCCCNC(=O)CCC(=O)NCCCC[C@@H]2NC(=O)[C@H](Cc3ccc(O)cc3)NC(=O)[C@H](CCC(=O)O)NC(=O)[C@H](C(C)C)NC(=O)[C@@H](NC(=O)[C@H](C)NC(=O)[C@H](CC(C)C)NC(=O)[C@H](Cc3ccccc3)NC(=O)CNC(=O)[C@H](CCCNC(=N)N)NC(=O)[C@H](CS)NC(=O)[C@H](CCCNC(=N)N)NC(=O)[C@H](C)N)CCCCNC(=O)CCC(=O)NCCCC[C@H](NC(=O)[C@H](CCSC)NC(=O)[C@H](CCCNC(=N)N)NC2=O)C(=O)N[C@@H](CCC(=O)O)C(=O)N[C@@H](CCCNC(=N)N)C(=O)N[C@@H](CCCNC(=N)N)C(=O)N1)C(=O)N[C@@H](Cc1ccccc1)C(=O)N[C@@H](CS)C(=O)N[C@H](C(=O)N[C@@H](CCC(N)=O)C(=O)N[C@@H](Cc1ccc(O)cc1)C(=O)N[C@@H](CC(N)=O)C(=O)N[C@H](C(=O)N[C@@H](CCCNC(=N)N)C(=O)N[C@@H](CO)C(=O)N[C@@H](Cc1ccccc1)C(=O)N[C@@H](CCSC)C(=O)N[C@@H](CC(N)=O)C(=O)N[C@H](C(=O)N[C@@H](CCCCN)C(=O)N[C@@H](Cc1c[nH]cn1)C(=O)N[C@@H](Cc1c[nH]c2ccccc12)C(=O)N1CCC[C@H]1C(=O)N[C@@H](Cc1c[nH]c2ccccc12)C(N)=O)C(C)C)[C@@H](C)CC)[C@@H](C)CC` [HC158] (H-ARCRGFLAKVEYKRMKERRKAIFCIQYNIRSFMNVKHWPW-NH2; linker 9-16, 13-20 via Suc (inferred); N-terminus and C-terminus assumed), the pIC50 was 5.24.
For `CC[C@H](C)[C@H](NC(=O)[C@H](C)N)C(=O)N[C@@H](Cc1ccccc1)C(=O)N[C@@H](CS)C(=O)N[C@H](C(=O)N[C@@H](CCC(N)=O)C(=O)N[C@@H](Cc1ccc(O)cc1)C(=O)N[C@@H](CC(N)=O)C(=O)N[C@H](C(=O)N[C@@H](CCCNC(=N)N)C(=O)N[C@@H](CO)C(=O)N[C@@H](Cc1ccccc1)C(=O)N[C@@H](CCSC)C(=O)N[C@@H](CC(N)=O)C(=O)N[C@H](C(=O)N[C@@H](CCCCN)C(=O)N[C@@H](Cc1c[nH]cn1)C(=O)N[C@@H](Cc1c[nH]c2ccccc12)C(=O)N1CCC[C@H]1C(=O)N[C@@H](Cc1c[nH]c2ccccc12)C(=O)N[C@@H](CCSC)C(=O)N[C@@H](CCCCN)C(=O)N[C@@H](CC(C)C)C(=O)N[C@@H](Cc1ccccc1)C(=O)N[C@@H](Cc1ccccc1)C(=O)N[C@@H](CCCCN)C(=O)N[C@H](C(=O)N[C@@H](CCCCN)C(N)=O)[C@@H](C)CC)C(C)C)[C@@H](C)CC)[C@@H](C)CC` [HC101] (H-AIFCIQYNIRSFMNVKHWPWMKLFFKIK-NH2; N-terminus and C-terminus assumed) the value was 5.05.
Take `CC[C@H](C)[C@@H]1NC(=O)[C@H](C)NC(=O)[C@@H](NC(=O)[C@H](CCCNC(=N)N)NC(=O)[C@H](CCCNC(=N)N)NC(=O)[C@H](CCC(=O)O)NC(=O)[C@@H]2CCCCNC(=O)CCC(=O)NCCCC[C@H](NC(=O)[C@H](C)NC(=O)[C@H](CC(C)C)NC(=O)[C@H](Cc3ccccc3)NC(=O)CNC(=O)[C@H](CCCNC(=N)N)NC(=O)[C@H](CS)NC(=O)[C@H](CCCNC(=N)N)NC(=O)[C@H](C)N)C(=O)N[C@@H](C(C)C)C(=O)N[C@@H](CCC(=O)O)C(=O)N[C@@H](Cc3ccc(O)cc3)C(=O)N[C@@H](CCC(N)=O)C(=O)N[C@@H](CCCNC(=N)N)C(=O)N[C@@H](CCSC)C(=O)N2)CCCCNC(=O)CCC(=O)NCCCC[C@@H](C(=O)N[C@@H](CC(N)=O)C(=O)N[C@H](C(=O)N[C@@H](CCCNC(=N)N)C(=O)N[C@@H](CO)C(=O)N[C@@H](Cc2ccccc2)C(=O)N[C@@H](CCSC)C(=O)N[C@@H](CC(N)=O)C(=O)N[C@H](C(=O)N[C@@H](CCCCN)C(=O)N[C@@H](Cc2c[nH]cn2)C(=O)N[C@@H](Cc2c[nH]c3ccccc23)C(=O)N2CCC[C@H]2C(=O)N[C@@H](Cc2c[nH]c3ccccc23)C(N)=O)C(C)C)[C@@H](C)CC)NC(=O)[C@H](CCC(N)=O)NC(=O)[C@H]([C@@H](C)CC)NC(=O)[C@H](CS)NC(=O)[C@H](Cc2ccccc2)NC1=O` [HC159] (H-ARCRGFLAKVEYQRMKERRKAIFCIQKNIRSFMNVKHWPW-NH2; linker 9-16, 20-27 via Suc (inferred); N-terminus and C-terminus assumed): the pIC50 was 4.88.
For `CC[C@H](C)[C@H](NC(=O)[C@H](C)NC(=O)[C@H](CCC(=O)O)NC(=O)[C@H](CCCNC(=N)N)NC(=O)[C@H](CCCNC(=N)N)NC(=O)[C@H](CCC(=O)O)NC(=O)[C@@H]1CCCCNC(=O)CCC(=O)NCCCC[C@H](NC(=O)[C@H](C)NC(=O)[C@H](CC(C)C)NC(=O)[C@H](Cc2ccccc2)NC(=O)CNC(=O)[C@H](CCCNC(=N)N)NC(=O)[C@H](CS)NC(=O)[C@H](CCCNC(=N)N)NC(=O)[C@H](C)N)C(=O)N[C@@H](C(C)C)C(=O)N[C@@H](CCC(=O)O)C(=O)N[C@@H](Cc2ccc(O)cc2)C(=O)N[C@@H](CCC(N)=O)C(=O)N[C@@H](CCCNC(=N)N)C(=O)N[C@@H](CCSC)C(=O)N1)C(=O)N[C@@H](Cc1ccccc1)C(=O)N[C@H]1CCCCNC(=O)CCC(=O)NCCCC[C@@H](C(=O)N[C@@H](Cc2ccccc2)C(=O)N[C@@H](CCSC)C(=O)N[C@@H](CC(N)=O)C(=O)N[C@H](C(=O)N[C@@H](CCCCN)C(=O)N[C@@H](Cc2c[nH]cn2)C(=O)N[C@@H](Cc2c[nH]c3ccccc23)C(=O)N2CCC[C@H]2C(=O)N[C@@H](Cc2c[nH]c3ccccc23)C(N)=O)C(C)C)NC(=O)[C@H](CCCNC(=N)N)NC(=O)[C@H]([C@@H](C)CC)NC(=O)[C@H](CC(N)=O)NC(=O)[C@H](Cc2ccc(O)cc2)NC(=O)[C@H](CCC(N)=O)NC(=O)[C@H]([C@@H](C)CC)NC1=O` [HC160] (H-ARCRGFLAKVEYQRMKERREAIFKIQYNIRKFMNVKHWPW-NH2; linker 9-16, 24-31 via Suc (inferred); N-terminus and C-terminus assumed) the value was 5.47; for `CCCC[C@H](NC(=O)[C@H](Cc1ccccc1)NC(=O)[C@H](CO)NC(=O)[C@H](CCCNC(=N)N)NC(=O)[C@@H](NC(=O)[C@H](CC(N)=O)NC(=O)[C@H](Cc1ccc(O)cc1)NC(=O)[C@H](CCC(N)=O)NC(=O)[C@@H](NC(=O)[C@H](CS)NC(=O)[C@H](Cc1ccccc1)NC(=O)[C@@H](NC(=O)[C@H](C)NC(=O)[C@H](CCC(=O)O)NC(=O)[C@H](CCCNC(=N)N)NC(=O)[C@H](CCCNC(=N)N)NC(=O)[C@H](CCC(=O)O)NC(=O)[C@@H](NC(=O)[C@H](CCCC)NC(=O)[C@H](CCCNC(=N)N)NC(=O)[C@H](CCC(N)=O)NC(=O)[C@H](Cc1ccc(O)cc1)NC(=O)[C@H](CCC(=O)O)NC(=O)[C@@H](NC(=O)[C@H](CCCNC(=N)N)NC(=O)[C@H](C)NC(=O)[C@H](CC(C)C)NC(=O)[C@H](Cc1ccccc1)NC(=O)CNC(=O)[C@H](CCCNC(=N)N)NC(=O)[C@H](CS)NC(=O)[C@H](CCCNC(=N)N)NC(=O)[C@H](C)N)C(C)C)C(C)C)[C@@H](C)CC)[C@@H](C)CC)[C@@H](C)CC)C(=O)N[C@@H](CC(N)=O)C(=O)N[C@H](C(=O)N[C@@H](CCCCN)C(=O)N[C@@H](Cc1c[nH]cn1)C(=O)N[C@@H](Cc1c[nH]c2ccccc12)C(=O)N1CCC[C@H]1C(=O)N[C@@H](Cc1c[nH]c2ccccc12)C(N)=O)C(C)C` [HC095] (H-ARCRGFLARVEYQR[Nle]VERREAIFCIQYNIRSF[Nle]NVKHWPW-NH2; N-terminus and C-terminus assumed), 5.00; for `CC[C@H](C)[C@H](NC(=O)[C@H](C)NC(=O)[C@H](CCC(=O)O)NC(=O)[C@@H]1CCCCNC(=O)CCC(=O)NCCCC[C@@H]2NC(=O)[C@H](CCC(=O)O)NC(=O)[C@H](C(C)C)NC(=O)[C@@H](NC(=O)[C@H](C)NC(=O)[C@H](CC(C)C)NC(=O)[C@H](Cc3ccccc3)NC(=O)CNC(=O)[C@H](CCCNC(=N)N)NC(=O)[C@H](CS)NC(=O)[C@H](CCCNC(=N)N)NC(=O)[C@H](C)N)CCCCNC(=O)CCC(=O)NCCCC[C@H](NC(=O)[C@H](CCSC)NC(=O)[C@H](CCCNC(=N)N)NC(=O)[C@H](CCC(N)=O)NC2=O)C(=O)N[C@@H](CCC(=O)O)C(=O)N[C@@H](CCCNC(=N)N)C(=O)N1)C(=O)N[C@@H](Cc1ccccc1)C(=O)N[C@@H](CS)C(=O)N[C@H](C(=O)N[C@@H](CCC(N)=O)C(=O)N[C@@H](Cc1ccc(O)cc1)C(=O)N[C@@H](CC(N)=O)C(=O)N[C@H](C(=O)N[C@@H](CCCNC(=N)N)C(=O)N[C@@H](CO)C(=O)N[C@@H](Cc1ccccc1)C(=O)N[C@@H](CCSC)C(=O)N[C@@H](CC(N)=O)C(=O)N[C@H](C(=O)N[C@@H](CCCCN)C(=O)N[C@@H](Cc1c[nH]cn1)C(=O)N[C@@H](Cc1c[nH]c2ccccc12)C(=O)N1CCC[C@H]1C(=O)N[C@@H](Cc1c[nH]c2ccccc12)C(N)=O)C(C)C)[C@@H](C)CC)[C@@H](C)CC` [HC157] (H-ARCRGFLAKVEKQRMKERKEAIFCIQYNIRSFMNVKHWPW-NH2; linker 9-16, 12-19 via Suc (inferred); N-terminus and C-terminus assumed), 4.96.

The values are drawn from US20220340629A1, “Myosin Derived Peptides and Related Compounds with Anticoagulant Activities” (THE SCRIPPS RESEARCH INSTITUTE, priority 0001, published 2022).
